Where two headings read alike, the source gives them in different places.
What was measured:
[1] = biological target: T1, aryl hydrocarbon receptor (Homo sapiens, UniProt P35869); test: Aryl hydrocarbon receptor-driven luciferase reporter in transiently transfected HepG2 cells (Example 3); assay type: cell-based; conditions: absence (FIG. 1) or presence (FIG. 2) of agonist VAF347 (80 nM), luciferase six hours after plating
T1 construct: HepG2 cells transiently transfected with the pGudLuc8.1 plasmid were thawed and 25,000 cells were plated per well; endogenous in cells; host or cells: HepG2
T1 sequence (P35869 11-848): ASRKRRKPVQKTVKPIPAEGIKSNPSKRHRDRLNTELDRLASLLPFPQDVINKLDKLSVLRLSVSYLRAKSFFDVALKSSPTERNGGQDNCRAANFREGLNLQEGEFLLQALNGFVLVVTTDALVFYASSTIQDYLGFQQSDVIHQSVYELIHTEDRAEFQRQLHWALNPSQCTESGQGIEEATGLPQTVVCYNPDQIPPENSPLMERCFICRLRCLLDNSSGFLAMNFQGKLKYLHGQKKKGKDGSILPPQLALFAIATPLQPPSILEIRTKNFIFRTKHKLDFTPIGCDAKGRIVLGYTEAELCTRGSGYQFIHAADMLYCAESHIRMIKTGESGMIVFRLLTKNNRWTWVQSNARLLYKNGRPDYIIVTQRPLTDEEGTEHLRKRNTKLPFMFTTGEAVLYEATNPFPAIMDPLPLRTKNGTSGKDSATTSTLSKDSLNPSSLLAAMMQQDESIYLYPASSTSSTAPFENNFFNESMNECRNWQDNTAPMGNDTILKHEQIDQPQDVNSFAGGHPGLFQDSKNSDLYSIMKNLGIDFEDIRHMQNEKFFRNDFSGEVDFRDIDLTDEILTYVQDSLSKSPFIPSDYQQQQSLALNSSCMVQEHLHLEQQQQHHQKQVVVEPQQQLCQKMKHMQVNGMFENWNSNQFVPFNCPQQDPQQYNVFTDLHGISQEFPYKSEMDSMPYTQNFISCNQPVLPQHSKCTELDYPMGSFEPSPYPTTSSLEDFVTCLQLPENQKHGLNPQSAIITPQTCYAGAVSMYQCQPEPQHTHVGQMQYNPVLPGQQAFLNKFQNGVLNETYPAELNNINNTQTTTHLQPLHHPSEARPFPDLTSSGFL
Procedure: Experimental details for this experiment are reported in Example 3, below.
To determine the ability of compounds (5) and (16) to inhibit the activity of the aryl hydrocarbon receptor and to induce the proliferation of hematopoietic stem cells, a series of HSC expansion experiments were conducted. In the first experiment, compounds (5) and (16) were assessed for their capacity to attenuate aryl hydrocarbon receptor signaling. To this end, HepG2 hepatocytes were transiently transfected with a luciferase reporter construct under the control of a promoter responsive to aryl hydrocarbon receptor signal transduction. The cells were plated at a density of 25,000 cells per well in a microtiter plate. The HepG2 cells were immediately treated with compound (5) or (16) in the absence (FIG. 1) or presence (FIG. 2) of the aryl hydrocarbon receptor agonist, VAF347 (80 nM). Luciferase activity was subsequently analyzed six hours after plating.

[2] = biological target: T2, aryl hydrocarbon receptor (AHR) (Homo sapiens, UniProt P35869); test: AHR antagonist assay: luciferase reporter in HepG2 cells transiently transfected with pGudLuc8.1; assay type: cell-based; conditions: HepG2 cells, 25,000 cells per well, luciferase activity 24 hours post-culture
T2 construct: HepG2 cells transiently transfected with the pGudLuc8.1 plasmid were thawed and 25,000 cells were plated per well; endogenous in cells; host or cells: HepG2
T2 sequence (P35869 11-848): T1 sequence (P35869 11-848)
Procedure: To determine the activity of a scale-up batch of Compound (24), individual enantiomers, and two derivatives Compound (27) and Compound (28) were evaluated for AHR antagonist activity. The compounds were compared to control AHR antagonist SR1, an additional control AHR antagonist, and stored sample of Compound (24)
Methods—HepG2 cells transiently transfected with the pGudLuc8.1 plasmid were thawed and 25,000 cells were plated per well and immediately treated the AHR agonist VAF347 (fixed at 40 nM) and/or the indicated AHR antagonists. Luciferase activity was measured 24 hours post-culture, corresponding to endogenous AHR antagonist activity (without VAF347, FIG. 8) or in the presence of VAF347 (FIG. 9). All synthesized compounds show equivalent AHR antagonist activity if not greater than SR1.

| SMILES | suppression of aryl hydrocarbon receptor activity (luciferase) [1] | EC50 ([2]; AHR agonist VAF347 fixed at 40 nM, read-out: AHR Antagonist Activity in the Presence of VAF347 EC50) | EC50 ([2]; without VAF347, read-out: Endogenous AHR Antagonist Activity EC50) |
| --- | --- | --- | --- |
| CCC(C)c1cnc2c(NCCc3c[nH]c4ccccc34)cc(-c3cncc(F)c3)cn12 (stereo not shown) [Compound (5)] | capable of suppressing aryl hydrocarbon receptor activity even in the presence of the activator VAF347 |  |  |
| CCC(C)c1cnc2c(NCCc3c[nH]c4ccccc34)nc(-c3cncc(F)c3)cn12 (stereo not shown) [Compound (16)] | capable of suppressing aryl hydrocarbon receptor activity even in the presence of the activator VAF347 |  |  |
| CC(C)n1cnc2c(NCCc3ccc(O)cc3)nc(-c3csc4ccccc34)nc21 [SR1] |  | 193 nM | 33 nM |

Source: patent publication US20210379033A1, “METHODS OF TREATING CANCER WITH ARYL HYDROCARBON RECEPTOR ANTAGONISTS” (Magenta Therapeutics Inc., priority 2018, published 2021)
